One data set relates to Gram-positive strains. Type of data set: cell-based.
Data set [1] can be described thus: Spot-on-lawn-based lipid II binding (competition) assay. Further details: species or system Lactococcus lactis. The conditions noted are these: spot-on-lawn on L. lactis MG1363 GM17 agar; estercin A 8 μg spotted adjacent to lipid II (300 μM, 3 μL); nisin positive, daptomycin negative control. The protocol:
The binding of the peptides to pure lipid II ([…]) was tested by the spot-on-the- lawn assay. Here, nisin and daptomycin were used for comparison.[51]

Data set [2] relates to L. lactis MG1363. The experiment in a line: Fluorescence microscopy assay (SYTO-9/PI) for membrane pore formation. It counts as cell-based, Lactococcus lactis. To be noted: L. lactis MG1363, peptide at 2-fold MIC, SYTO-9 and 5 μM PI, 15 min room temperature. The protocol: An overnight culture of L. lactis MG1363 was added to the GM17 broth to a final concentration of 1% (v/v) and grown to an OD600 of 0.8. The culture was centrifuged at 6,000 rpm for 5 min and washed three times in the MHB medium. […] Simultaneously, 5 μM PI and SYTO 9 were added to the samples. After incubation at room temperature for 15 min, the samples were centrifuged, and the supernatant was removed. And the cells were washed three times with MHB. After that, the harvest cells were loaded on 1.5% agarose pads and analyzed by a DeltaVision Elite microscope (Applied Precision).

The test system of data set [3] is Clostridium botulinum CECT551. To be noted: Reinforced Clostridium Medium, Coy Anaerobic Chamber, 18 h, 37 °C, three biological replicates.
Data set [4] has as its system Listeria monocytogenes LMG10470. To be noted: LMG10470, 18 h.
The subject of data set [5] is Clostridium perfringens CECT376. The conditions noted are these: Reinforced Clostridium Medium, Coy Anaerobic Chamber, 18 h, 37 °C, three biological replicates.
Data set [6] relates to L. lactis MG1363. The experiment in a line: Time killing assay. It counts as cell-based, Lactococcus lactis. To be noted: L. lactis MG1363, 5 × 10^5 CFU/mL, 10-fold the MIC, GM17, 30 °C, CFU counts, triplicate. As for the experimental part:
Time-killing assays were conducted according to the previously described protocol.[57] Briefly, an overnight culture of L. lactis MG1363 was diluted 50-fold in GM17 and incubated at 30 °C. The cells were grown for about 3 h to an OD600 of 0.5, and then the cell concentration was adjusted to 5 × 10^5 CFU/mL. […] Untreated cells were used as a control. At predetermined time points, 50 μL was taken from each sample, and undiluted and 10-fold serially diluted suspensions were plated on GM17 agar plates. After the overnight incubation at 30 °C, the colonies on the plates were counted and then calculated as the colony-forming units per milliliter. The experiment was carried out in triplicate.

For data set [7], the system named is Enterococcus faecium LMG16003 (VRE). The conditions noted are these: LMG16003, 18 h.
Data set [8] deals with Enterococcus faecalis LMG16216 (VRE). To be noted: LMG16216, 18 h.
Data set [9] deals with Clostridium tetani CECT4629. To be noted: Reinforced Clostridium Medium, Coy Anaerobic Chamber, 18 h, 37 °C, three biological replicates.
Data set [10] relates to Staphylococcus aureus LMG15975 (MRSA). The conditions noted are these: LMG15975, 18 h.
The subject of data set [11] is Bacillus cereus ATCC14579. The conditions noted are these: ATCC14579, 18 h.
In data set [12] the test system is Staphylococcus aureus LMG10147. The conditions noted are these: LMG10147, 18 h.
The nature of data set [13]: Thermal stability (remaining antimicrobial activity). It counts as physicochemical. To be noted: 4 h at 95 °C; read-out antimicrobial activity on L. lactis MG1363 agar; three biological replicates.
The nature of data set [14]: pH stability (remaining antimicrobial activity). The conditions noted are these: pH 2, 4, 7 or 10 adjusted with HCl or NaOH; read-out antimicrobial activity on L. lactis MG1363 agar; three biological replicates.
For data set [15], the system named is Lactococcus lactis MG1363. To be noted: 18 h.
The subject of the next data set is C. perfringens. The conditions noted are these: reported value, ref not given; cited from earlier work.

Converted amounts (≈) assume the structure as drawn. A value given as a limit tells only on which side of the number the result lay.

A word on the MIC: it is the lowest concentration that inhibits growth of the organism. Take `C=C1NC(=O)[C@H](C(C)C)NC(=O)C2CSC[C@@H](C(=O)N[C@@H](CCCCN)C(=O)O)NC(=O)[C@H](CSC(C)C3NC(=O)[C@H](Cc4ccccc4)NC(=O)C(NC(=O)[C@@H](NC(=O)[C@@H](NC(=O)[C@@H](NC(=O)CNC(=O)CNC(=O)CN)C(C)C)[C@@H](C)CC)[C@@H](C)O)C(C)SC[C@H](NC(=O)[C@H](CCC(=O)O)NC(=O)[C@H](Cc4c[nH]cn4)NC3=O)C(=O)N[C@@H](Cc3ccc(O)cc3)C(=O)N[C@@H](Cc3ccc(O)cc3)C(=O)N[C@@H](CC(N)=O)C(=O)N2)NC(=O)CNC(=O)CNC(=O)[C@H](Cc2c[nH]c3ccccc23)NC(=O)[C@H](CO)NC(=O)[C@H](C)NC(=O)[C@@H]2CCCN2C1=O` (some centres unmarked) [estercin A]: the “Antimicrobial activity against selected Gram-positive strains” value in the data set with Gram-positive strains is on record as “broad spectrum of activity”. Also, in [1], the “Lipid II binding” value was “binds to lipid II”. In addition, the Membrane pore-forming ability result in the data set on L. lactis MG1363 [2] is on record as “cannot form pores on the membrane of target cells”. The MIC was 32 µg/mL (≈ 11.6 µM) in data set [3]; >64 µg/mL in [4]; 1 µg/mL (≈ 0.363 µM) in [5]; 64 µg/mL (≈ 23.2 µM) in data set [7]; 64 µg/mL (≈ 23.2 µM) in [8]; 4 µg/mL (≈ 1.45 µM) in data set [9]. The MIC in data set [10] was 4 µg/mL (≈ 1.45 µM); in data set [11] it was 8 µg/mL (≈ 2.91 µM); in [12], 16 µg/mL (≈ 5.81 µM); in data set [15], 4 µg/mL (≈ 1.45 µM). Further, the Rate of killing result in the data set on L. lactis MG1363 [6] is recorded as “slower rate of killing”. In data set [13], the “Reduction of antimicrobial activity after 95 °C exposure” value is “less than 30%”. Also, in [14], the “pH stability: activity retained after incubation” value was “retained most of their activity”.
Take ruminococcin A: in the data set with C. perfringens, the minimal inhibitory concentration (MIC) is 75 µg/mL.

(Values after paper PMC11877530, “Heterologous Expression and Characterization of Estercin A, a Class II Lanthipeptide Derived from Clostridium estertheticum CF016, with Antimicrobial Activity against Clinically Relevant Pathogens” (Journal of Natural Products, 2025).)
